Read-outs that look alike come from different tables or passages of the source.
Columns and labels:
[1] = target: T1, human Nox4 (Homo sapiens, UniProt Q9NPH5); assay type: biochemical; details: read-out: Ki on Nox4; cell free membrane assay
T1 sequence (Q9NPH5 1-578): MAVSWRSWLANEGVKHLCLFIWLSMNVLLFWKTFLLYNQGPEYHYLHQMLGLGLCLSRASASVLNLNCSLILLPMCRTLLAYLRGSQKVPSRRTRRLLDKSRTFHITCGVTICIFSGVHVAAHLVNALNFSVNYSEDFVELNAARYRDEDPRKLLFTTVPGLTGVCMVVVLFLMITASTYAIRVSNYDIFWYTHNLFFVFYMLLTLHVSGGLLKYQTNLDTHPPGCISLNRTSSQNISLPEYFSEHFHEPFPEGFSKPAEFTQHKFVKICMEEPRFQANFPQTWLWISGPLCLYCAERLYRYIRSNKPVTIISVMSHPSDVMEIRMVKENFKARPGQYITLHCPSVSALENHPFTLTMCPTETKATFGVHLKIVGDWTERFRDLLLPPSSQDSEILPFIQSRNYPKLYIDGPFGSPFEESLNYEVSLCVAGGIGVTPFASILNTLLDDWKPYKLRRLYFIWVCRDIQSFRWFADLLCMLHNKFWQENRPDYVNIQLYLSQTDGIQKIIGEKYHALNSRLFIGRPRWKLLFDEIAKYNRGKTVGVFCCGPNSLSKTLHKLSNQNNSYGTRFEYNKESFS
T1 sequence (P13498 2-195 partner limits assumed): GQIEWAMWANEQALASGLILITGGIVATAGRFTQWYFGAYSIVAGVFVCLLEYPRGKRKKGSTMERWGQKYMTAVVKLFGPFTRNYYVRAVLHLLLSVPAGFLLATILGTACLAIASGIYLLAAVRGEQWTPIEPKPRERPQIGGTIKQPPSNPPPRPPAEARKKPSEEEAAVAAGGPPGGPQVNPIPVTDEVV

[2] = target: xanthine oxidase (Homo sapiens, UniProt P47989); assay: xanthine oxidase assay, same ROS read-out as NOX assays; assay type: biochemical
[3] = target: T2, human Nox1 (Homo sapiens, UniProt Q9Y5S8); assay type: biochemical
T2 sequence (Q9Y5S8 1-564): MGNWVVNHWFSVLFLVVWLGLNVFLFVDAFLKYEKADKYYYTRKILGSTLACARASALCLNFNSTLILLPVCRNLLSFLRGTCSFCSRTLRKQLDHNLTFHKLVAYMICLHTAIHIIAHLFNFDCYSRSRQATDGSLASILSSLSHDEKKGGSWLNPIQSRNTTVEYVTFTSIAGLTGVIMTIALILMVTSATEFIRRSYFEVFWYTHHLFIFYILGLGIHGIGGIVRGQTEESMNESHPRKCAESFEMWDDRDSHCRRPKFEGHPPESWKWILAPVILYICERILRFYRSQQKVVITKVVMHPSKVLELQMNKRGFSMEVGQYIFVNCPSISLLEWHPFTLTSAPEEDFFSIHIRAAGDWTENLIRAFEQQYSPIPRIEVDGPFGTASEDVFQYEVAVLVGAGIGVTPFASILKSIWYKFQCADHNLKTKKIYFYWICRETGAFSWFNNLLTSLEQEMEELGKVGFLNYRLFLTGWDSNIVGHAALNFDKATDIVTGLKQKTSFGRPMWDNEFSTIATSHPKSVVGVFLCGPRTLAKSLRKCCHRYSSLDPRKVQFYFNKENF
T2 sequence (P13498 2-195 partner limits assumed): T1 sequence (P13498 2-195 partner limits assumed)

[4] = tested on: NOX2-driven neutrophil oxidative burst; assay: neutrophil oxidative burst by flow cytometry in human whole blood; assay type: cell-based; details: up to 100uM
[5] = tested on: CCl4-induced liver fibrosis; assay: CCl4 model of liver fibrosis; assay type: in vivo, mice
[6] = tested on: BDL-induced hepatic fibrosis; assay: bile duct ligation; assay type: in vivo; details: WT and SOD1mu mice, 60 mg/kg daily from day 11
[7] = tested on: activated HSCs; assay: gene expression in culture-activated primary HSCs; assay type: cell-based, mouse; details: 20 μM
[8] = tested on: colI-GFP HSCs; assay: collagen promoter-driven GFP expression in HSCs; assay type: cell-based, mouse; details: SOD1mu and WT HSCs, Ang II 10^−6 M, 20 μM, 24 hours
[9] = tested on: HSCs; assay: ROS generation in DCFDA-loaded HSCs; assay type: cell-based, mouse; details: SOD1mu and WT HSCs, Ang II 10^−6 M, 20 μM
[10] = tested on: Rac1; assay: Rac1 G-LISA activation assay in HSCs; assay type: cell-based, mouse; details: WT and SOD1mu HSCs, 20 μM, 24 hours
[11] = tested on: HSCs; assay: gene expression in Ang II stimulated HSCs; assay type: cell-based, mouse; details: Ang II 10^−6 M, 20 μM, 24 hours
[12] = tested on: 170 different proteins; assay: in vitro off-target pharmacological profile; details: tested at 10 μM
[13] = CCl4 treated SOD1mu mice, 60 mg/kg daily
[14] = SOD1mu and WT mice, 60 mg/kg daily

Chain of xanthine oxidase (P47989 whole entry, species assumed): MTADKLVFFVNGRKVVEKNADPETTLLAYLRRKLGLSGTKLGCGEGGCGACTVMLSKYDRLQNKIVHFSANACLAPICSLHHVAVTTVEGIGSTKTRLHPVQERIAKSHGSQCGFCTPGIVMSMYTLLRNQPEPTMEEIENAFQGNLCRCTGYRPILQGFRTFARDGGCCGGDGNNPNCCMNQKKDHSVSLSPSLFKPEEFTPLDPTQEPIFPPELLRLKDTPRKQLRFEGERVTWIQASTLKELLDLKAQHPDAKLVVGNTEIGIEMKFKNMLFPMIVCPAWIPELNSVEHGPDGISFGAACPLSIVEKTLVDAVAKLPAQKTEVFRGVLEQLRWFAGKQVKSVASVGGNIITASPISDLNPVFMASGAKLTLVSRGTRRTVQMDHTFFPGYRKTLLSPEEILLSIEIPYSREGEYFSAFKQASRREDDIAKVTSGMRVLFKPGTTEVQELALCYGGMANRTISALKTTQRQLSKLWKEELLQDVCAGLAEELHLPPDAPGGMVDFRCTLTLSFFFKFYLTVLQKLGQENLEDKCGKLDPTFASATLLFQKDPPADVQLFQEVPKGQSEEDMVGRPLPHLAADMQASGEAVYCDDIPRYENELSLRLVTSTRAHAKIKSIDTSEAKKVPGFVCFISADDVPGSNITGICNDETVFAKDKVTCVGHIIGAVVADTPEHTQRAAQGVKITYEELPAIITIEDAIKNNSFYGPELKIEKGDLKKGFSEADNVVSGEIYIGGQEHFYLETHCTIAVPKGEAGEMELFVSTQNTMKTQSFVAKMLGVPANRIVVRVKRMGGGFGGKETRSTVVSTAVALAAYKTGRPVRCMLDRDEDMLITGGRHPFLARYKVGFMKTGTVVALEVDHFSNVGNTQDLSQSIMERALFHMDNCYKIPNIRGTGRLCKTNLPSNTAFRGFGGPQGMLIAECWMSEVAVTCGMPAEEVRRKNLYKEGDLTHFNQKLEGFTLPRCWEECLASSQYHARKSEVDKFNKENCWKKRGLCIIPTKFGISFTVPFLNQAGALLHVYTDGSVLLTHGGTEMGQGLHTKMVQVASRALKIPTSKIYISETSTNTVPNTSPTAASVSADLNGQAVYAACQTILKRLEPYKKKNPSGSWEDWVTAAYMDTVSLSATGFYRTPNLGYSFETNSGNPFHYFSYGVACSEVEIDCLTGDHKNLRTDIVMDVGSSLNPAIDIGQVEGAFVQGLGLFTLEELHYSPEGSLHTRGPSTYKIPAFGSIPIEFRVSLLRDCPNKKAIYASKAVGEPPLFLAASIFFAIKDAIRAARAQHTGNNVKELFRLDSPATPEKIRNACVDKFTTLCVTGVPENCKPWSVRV

Structure (SMILES): c1ccc([I+]c2ccccc2)cc1 [DPI, Diphenyliodonium, reference compound]
- Ki [1]: 70 ± 10 nM
- Ki ([2]; read-out: Ki on xanthine oxidase): 50 nM

Structure (SMILES): CN(C)c1cccc(-c2c3c(=O)n(-c4ccccc4Cl)[nH]c3cc(=O)n2C)c1 [GKT137831, 2-(2-chlorophenyl)-4-[3-(dimethylamino)phenyl]-5-methyl-1H-pyrazolo[4,3-c]pyridine-3,6(2H,5H)-dione]
- Ki [3]: 110 ± 30 nM
- Ki [2]: > 100000 nM
- scavenging of superoxide (O2•−) [2]: inability to scavenge superoxide
- inhibition of neutrophil oxidative burst [4]: did not significantly inhibit
- liver inflammation and injury ([5]; CCl4 treated SOD1mu and WT mice, 60 mg/kg daily): inhibited to similar lower levels
- hepatic 4-HNE levels [5, 13]: suppressed
- hepatic MDA levels (TBARS) [5, 13]: suppressed
- hepatic mRNA expression of TNF-α [5, 13]: suppressed
- serum ALT levels [5, 13]: reduced
- macrophage infiltration and activation (F4/80, CD68) ([5]; CCl4 treated mice, 60 mg/kg daily): prevented macrophage infiltration and activation
- hepatic collagen deposition (Sirius red staining) [5, 14]: reduced
- hepatic mRNAs of collagen α1(I), TIMP-1 and TGF-β [5, 14]: reduced the induction of those genes to the same lower levels
- CCl4-induced liver fibrosis ([5]; SOD1mu and WT mice, 60 mg/kg intragastric daily, last half of CCl4 treatment): attenuated
- hepatic α-SMA expression ([5]; SOD1mu mice, immunohistochemistry and immunoblotting, 60 mg/kg daily): markedly decreased
- BDL-induced hepatic fibrosis [6]: decreased
- NOX4 and NOX1 mRNA expression ([7]; activated SOD1mu HSCs): suppressed
- collagen α1(I) and Acta2 mRNA expression ([7]; activated SOD1mu and WT HSCs): reduced
- Ang II induced GFP fluorescence (collagen α1(I) promoter) [8]: suppressed
- Ang II induced ROS generation [9]: suppressed
- Rac1 activity after Ang II stimulation [10]: no effect
- Ang II induced NOX1 and NOX4 mRNA expression ([11]; SOD1mut and WT HSCs): suppressed
- Ang II induced collagen α1(I) and TIMP-1 mRNA expression ([11]; WT and SOD1mu HSCs): blocked
- inhibition of off-target proteins [12]: did not show any significant inhibition of any tested target protein

Reference: PMC3493679 (Hepatology (Baltimore, Md.), 2012)
